Counter-ions that a name gives are not always drawn.
Tests used:
[1] = pH 5, 7 or 9; cited from earlier work
[2] = Drug (paclitaxel) loading into NLPs, quantified by reverse phase HPLC after SEC purification; format: physicochemical; details: for amount of paclitaxel loaded into NLPs (mass of drug over total mass of particle components): NLPs prepared with the named lysophospholipid at 50 mol % content
Protocol: For NLP assemblies using DOPC as the membrane forming lipid with apoE422k, the total lipid-to-apoE422K molar ratio was 80:1. Briefly, lipids were either prepared or obtained in chloroform and aliquoted into glass vials. Chloroform was then removed using a stream of N2 under agitation to form a thin lipid film. Lipids were solubilized in PBS buffer (137 mM sodium chloride, 2.7 mM potassium chloride, 10 mM phosphate buffer, pH 7.4) using 30 mM sodium cholate. After addition of the apoE422k (150 μM in final assembly volume), samples were incubated at 23.8° C. for at least 2 hours.
Assemblies were dialyzed overnight against PBS to remove cholate. Samples were subsequently analyzed and purified by SEC (size exclusion chromatography) (Superdex 200, 10/300 GL column, GE Healthcare, Piscataway, N.J.) in PBS buffer (0.5 mL/min flow rate). The exclusion limit of the column was determined with Blue Dextran 2000. SEC fractions (500 μl) were collected every 60 s. SEC fractions containing homogeneous NLP populations were concentrated using 50 kDa MWCO spin concentrators (Sartorius). The apoE422k concentration was determined using NanoDrop (Thermo Scientific). The concentrated NLP samples were then stored at 4° C. until further use.
The solution was then spun down to remove any precipitate, and then the supernatant was purified by SEC (GE HiTrap desalting column) in PBS buffer (0.5 ml/min flow rate). The collected fractions containing NLP were then analyzed by reverse phase HPLC to quantify each component of the NLP.
The ability of the two NLP populations to accommodate the drug of interest, paclitaxel, was then assessed. Following addition of paclitaxel to the two solutions, the NLP solutions were re-purified to remove free paclitaxel. The solutions were then analyzed by reverse phase HPLC to assess the amount of paclitaxel that was incorporated into the particles.
Further experiments were carried out to assess the relationship between lysophospholipid content and paclitaxel loading. NLPs were prepared with initial lysophospholipid contents (lyso 14:0) between 0 and 70 mole percent (i.e. 0 mol %-70 mol %). After paclitaxel addition and subsequent purification, the composition of these particles was again analyzed using reverse phase HPLC.

[3] = compared with lyso 14:0, 16:0 and 18:0; cited from earlier work

SMILES: COc1cccc2c1C(=O)c1c(O)c3c(c(O)c1C2=O)C[C@@](O)(C(=O)CO)C[C@@H]3O[C@H]1C[C@H](N)[C@H](O)[C@H](C)O1 [doxorubicin hydrochloride]
- LogKow [1]: 3.5
- incorporation in NLPs ([2]; regardless of whether a lysophospholipid is used as part of the drug loading process): does not incorporate to a useful degree

SMILES: CCCCCCCCCCCCCC(=O)OC[C@@H](O)COP(=O)([O-])OCC[N+](C)(C)C [lyso 14:0, 1-tetradecanoyl-sn-glycero-3-phosphocholine]
- amount of paclitaxel loaded into NLPs (mass of drug over total mass of particle components) [2]: over 20%

SMILES: CCCCCCCC/C=C\CCCCCCCC(=O)OC[C@@H](O)COP(=O)([O-])OCC[N+](C)(C)C [lyso 18:1, 1-(9Z-octadecenoyl)-sn-glycero-3-phosphocholine]
- amount of paclitaxel loaded into NLPs (mass of drug over total mass of particle components) [2]: least amount
- aqueous solubility / CMC (in words) [3]: lowest solubility

SMILES: CC(=O)O[C@H]1C(=O)[C@@]2(C)[C@H]([C@H](OC(=O)c3ccccc3)[C@]3(O)C[C@H](OC(=O)[C@H](O)[C@@H](NC(=O)c4ccccc4)c4ccccc4)C(C)=C1C3(C)C)[C@]1(OC(C)=O)CO[C@@H]1C[C@@H]2O [paclitaxel]
- paclitaxel content in NLPs (mass of drug over total mass of particle components) ([2]; 10-20 mol % initial lysophospholipid (lyso 14:0)): approximately 5 % by mass
- paclitaxel loading in NLPs (mass of drug over total mass of particle components) ([2]; 30-60 mol % initial lysophospholipid (lyso 14:0)): 10-20%
- measured quantity of paclitaxel in NLPs ([2]; 30 mol % lysophospholipid group): about 0.23 micrograms
- paclitaxel loading in NLPs (mass of drug over total mass of particle components) ([2]; 70 mol % initial lysophospholipid (lyso 14:0)): > 30 % by mass
- measured quantity of paclitaxel in NLPs ([2]; 70 mol % lysophospholipid group): about 0.23 micrograms
- paclitaxel accepted by NLPs from second SEC peak versus larger particles from peak 1 ([2]; NLPs with 40 mol % initial lysophospholipid (lyso 14:0), two SEC populations): substantially more
- paclitaxel content in NLPs (mass of drug over total mass of particle components) ([2]; NLPs without lysophospholipids (0 mol % lyso 14:0), DOPC/apoE422k): 1-2 % by mass of the particle
- incorporation into NLP ([2]; when aided by lysophospholipid): capable of being incorporated into NLP to a useful mass percent
